Source: patent US20250011288A1 (BRISTOL-MYERS SQUIBB COMPANY, priority 2021, published 2025)

Molecular target: T1, human RXFP1 (Homo sapiens, UniProt Q9HBX9)
T1 construct: expressed in transfected cells
T1 sequence (Q9HBX9 1-757): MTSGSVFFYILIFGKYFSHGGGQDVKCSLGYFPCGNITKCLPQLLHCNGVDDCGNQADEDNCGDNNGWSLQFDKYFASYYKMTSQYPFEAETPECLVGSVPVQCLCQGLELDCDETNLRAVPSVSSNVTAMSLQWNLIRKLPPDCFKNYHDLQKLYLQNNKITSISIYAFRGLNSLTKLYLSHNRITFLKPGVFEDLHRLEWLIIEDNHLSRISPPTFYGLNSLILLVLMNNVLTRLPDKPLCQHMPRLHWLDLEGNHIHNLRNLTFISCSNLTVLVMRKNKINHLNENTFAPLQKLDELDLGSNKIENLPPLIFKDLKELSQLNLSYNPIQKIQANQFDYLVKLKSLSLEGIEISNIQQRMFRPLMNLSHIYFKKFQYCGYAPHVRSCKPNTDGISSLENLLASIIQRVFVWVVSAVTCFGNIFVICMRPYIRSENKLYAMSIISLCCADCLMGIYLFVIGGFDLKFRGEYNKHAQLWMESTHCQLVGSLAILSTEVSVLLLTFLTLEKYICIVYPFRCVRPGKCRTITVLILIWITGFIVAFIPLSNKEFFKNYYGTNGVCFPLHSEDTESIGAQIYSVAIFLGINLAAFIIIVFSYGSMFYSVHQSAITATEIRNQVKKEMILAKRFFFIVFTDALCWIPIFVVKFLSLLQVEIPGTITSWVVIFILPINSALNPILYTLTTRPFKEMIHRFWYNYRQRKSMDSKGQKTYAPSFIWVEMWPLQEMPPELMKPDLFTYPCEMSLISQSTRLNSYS
Experiment: human RXFP1 (hRXFP1) HEK293 cAMP assay (HTRF)
Type: cell-based
Conditions: HEK293 cells stably expressing human RXFP1, 30 min at room temperature
Outline: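 Intracellular cAMP was quantified by HTRF after a 30 min room-temperature exposure of hRXFP1-HEK293 cells (1500/well) to compound at 0.010 nM–50 µM final, 2% DMSO. Buffer was HBSS with 20 mM HEPES, 0.05% BSA and 0.5 mM IBMX; values came from a 4-parameter logistic fit.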

SMILES | EC50 [nM]
COc1cccc2cc(C(=O)N[C@@H]3C4CCC(/C4=C/C(F)(F)F)[C@@H]3C(=O)Nc3ccc(F)c(C(F)(F)F)c3)cnc12 (stereo partly drawn) [Example 14, N-[(2R,3S,7Z)-3-{[4-fluoro-3-(trifluoromethyl)phenyl]carbamoyl}-7-(2,2,2-trifluoroethylidene)bicyclo[2.2.1]heptan-2-yl]-8-methoxyquinoline-3-carboxamide] | 2900
COc1cc2c(cc1C(=O)N[C@@H]1C3CCC(/C3=C/C3CC3)[C@@H]1C(=O)Nc1ccc(F)c(C(F)(F)F)c1)CN(CCO)CC2 (stereo partly shown) [Example 94] | 1200
COCCN1CCc2cc(C(=O)N[C@@H]3C4CCC(/C4=C/C4CC4)[C@@H]3C(=O)Nc3ccc(F)c(C(F)(F)F)c3)c(OC)cc2C1 (stereo partly shown) [Example 91] | 4700
O=C(N[C@@H]1C2CCC(/C2=C/C(F)(F)F)[C@@H]1C(=O)Nc1ccc(F)c(C(F)(F)F)c1)c1cc(Br)cc2c1OCC2 (stereo partly drawn) [Example 58, 5-bromo-N-[(2R,3S,7Z)-3-{[4-fluoro-3-(trifluoromethyl)phenyl]carbamoyl}-7-(2,2,2-trifluoro-ethylidene)bicyclo[2. 2.1]heptan-2-yl]-2,3-dihydro-1-benzofuran-7-carboxamide] | 3000
COc1ncc(Cl)cc1C(=O)N[C@@H]1C2CCC(/C2=C/C(F)(F)F)[C@@H]1C(=O)Nc1ccc(F)c(C(F)(F)F)c1 (stereo partly drawn) [Example 11, 5-chloro-N-[(2R,3S,7Z)-3-{[4-fluoro-3-(trifluoromethyl)phenyl]carbamoyl}-7-(2,2,2-trifluoroethylidcne)bicyclo[2. 2.1]heptan-2-yl]-2-methoxypyridine-3-carboxamide] | 940
COc1cc2c(cc1C(=O)N[C@@H]1C3CCC(/C3=C/C3CC3)[C@@H]1C(=O)Nc1ccc(F)c(C(F)(F)F)c1)CCN(CCS(C)(=O)=O)C2 (stereo partly shown) [Example 92] | 4800
COc1ncc(Br)cc1C(=O)N[C@@H]1C2CCC(C2=C(C)C)[C@@H]1C(=O)Nc1ccc(F)c(C(F)(F)F)c1 (stereo partly drawn) [Example 1, 5-bromo-N-[(2R,3S)-3-{[4-fluoro-3-(trifluoromethyl)phenyl]carbamoyl}-7-(propan-2-ylidene)bicyclo[2.2.1]heptan-2-yl]-2-methoxypyridine-3-carboxamide] | 710
O=C(O)c1ccc(F)c(C23COC(C(=O)N[C@H]4[C@@H](C(=O)Nc5ccc(F)c(C(F)(F)F)c5)[C@H]5CC[C@@H]4/C5=C\C(F)(F)F)(C2)C3)c1 [Example 81, 4-fluoro-3-(1-(((1R,2R,3S,4R,Z)-3-((4-fluoro-3-(trifluoromethyl)phenyl)carbamoyl)-7-(2,2,2-trifluoroethylidene)bicyclo[2.2.1]heptan-2-yl)carbamoyl)-2-oxabicyclo[2.1.1]hexan-4-yl)benzoic acid] | 2300

The next compounds have a lower EC50 than those just listed; values first:

EC50 [nM] | SMILES
7.9 | COc1ncc(-c2cc([C@H](OC(=O)NC3CCC3)C(F)(F)F)ccc2F)cc1C(=O)N[C@@H]1C2CCC(/C2=C/C2CC(F)(F)C2)[C@@H]1C(=O)Nc1ccc(F)c(C(F)(F)F)c1 (stereo partly drawn) [Example 169, (1S)-1-[3-(5-{[(2R,3S,7Z)-7-[(3,3-difluorocyclobutyl)methylidene]-3-{[4-fluoro-3-(trifluoromethyl)phenyl]carbamoyl}bicyclo[2.2.1]heptan-2-yl]carbamoyl}-6-methoxypyridin-3-yl)-4-fluorophenyl]-2,2,2-trifluoroethyl N-cyclobutyl-carbamate]
1.4 | COc1ncc(C2=NOC3CC(CO)CC23)cc1C(=O)N[C@H]1[C@@H](C(=O)Nc2ccc(F)c(C(F)(F)F)c2)[C@H]2CC[C@@H]1/C2=C\c1cscn1 (stereo partly drawn) [Example 96, N-((1R,2R,3S,4R,Z)-3-((4-fluoro-3-(trifluoromethyl)phenyl)carbamoyl)-7-(thiazol-4-ylmethylene)bicyclo[2.2.1]heptan-2-yl)-5-(5-(hydroxymethyl)-3a,5,6,6a-tetrahydro-4H-cyclopenta[d]isoxazol-3-yl)-2-methoxy-nicotinamide]
1.6 | COc1ncc(C2=NOC3CC(C(O)C(F)(F)F)CC23)cc1C(=O)N[C@H]1[C@@H](C(=O)Nc2ccc(F)c(C(F)(F)F)c2)[C@H]2CC[C@@H]1/C2=C\C1CC1 (stereo partly drawn) [Example 131, N-((1R,2R,3S,4R,Z)-7-(cyclopropyl-methylene)-3-((4-fluoro-3-(trifluoromethyl)phenyl)carbamoyl)bicyclo[2.2.1]heptan-2-yl)-2-methoxy-5-(5-(2,2,2-trifluoro-1-hydroxyethyl)-3a,5,6,6a-tetrahydro-4H-cyclopenta[d]isoxazol-3-yl)nicotinamide]
3.6 | COc1ncc(C2=NOC3OCCCC23)cc1C(=O)N[C@H]1[C@@H](C(=O)Nc2ccc(F)c(C(F)(F)F)c2)[C@H]2CC[C@@H]1/C2=C\C1CCCC1 (stereo partly drawn) [Example 125, N-((1R,2R, 3S,4R,Z)-7-(cyclopentyl-methylene)-3-((4-fluoro-3-(trifluoromethyl)phenyl)carbamoyl)bicyclo[2.2.1]heptan-2-yl)-2-methoxy-5-(3a,5,6,7a-tetrahydro-4H-pyrano[3,2-d]isoxazol-3-yl)nicotinamide]
5 | COc1ncc(C2=NOC3CC(C(O)C(F)(F)F)CC23)cc1C(=O)N[C@H]1[C@@H](C(=O)Nc2ccc(F)c(C(F)(F)F)c2)[C@H]2CC[C@@H]1/C2=C\CC(O)C(F)(F)F (stereo partly drawn) [Example 129, N-((1R,2R,3S,4R,Z)-3-((4-fluoro-3-(trifluoromethyl)phenyl)carbamoyl)-7-(4,4,4-trifluoro-3-hydroxybutylidene)bicyclo[2.2.1]heptan-2-yl)-2-methoxy-5-(5-(2,2,2-trifluoro-1-hydroxyethyl)-3a,5,6,6a-tetrahydro-4H-cyclopenta[d]isoxazol-3-yl)nicotinamide]
28 | COc1cnc(C2=NOC3COCC23)cc1C(=O)N[C@H]1[C@@H](C(=O)Nc2ccc(F)c(C(F)(F)F)c2)[C@H]2CC[C@@H]1/C2=C\C1CC1 (single isomer, unassigned) [Example 71]
230 | COc1cc2c(cc1C(=O)N[C@H]1[C@@H](C(=O)Nc3ccc(F)c(C(F)(F)F)c3)[C@H]3CC[C@@H]1/C3=C\C1CC1)CN(S(C)(=O)=O)CC2 [Example 89, N-[(1R,2R,3S,4R)-7-(cyclopropyl-methylidene)-3-{[4-fluoro-3-(trifluoromethyl)phenyl]carbamoyl}bicyclo[2.2.1]heptan-2-yl]-2-methanesulfonyl-6-methoxy-1,2,3,4-tetrahydro-isoquinoline-7-carboxamide]
2.6 | CNC(=O)O[C@@H](c1ccc(F)c(-c2cnc(OC)c(C(=O)N[C@@H]3C4CCC(/C4=C/C4CC4)[C@@H]3C(=O)Nc3ccc(F)c(C(F)(F)F)c3)c2)c1)C(F)(F)F (stereo partly drawn) [Example 182, (1S)-1-[3-(5-{[(2R,3S,7Z)-7-(cyclopropyl-methylidene)-3-{[4-fluoro-3-(trifluoromethyl)phenyl]carbamoyl}bicyclo[2.2.1]heptan-2-yl]carbamoyl}-6-methoxypyridin-3-yl)-4-fluorophenyl]-2,2,2-trifluoroethyl N-methylcarbamate]
136 | COc1ncc(-c2cccc(C(=O)O)c2)cc1C(=O)N[C@@H]1C2CCC(/C2=C/C(F)(F)F)[C@@H]1C(=O)Nc1ccc(F)c(C(F)(F)F)c1 (stereo partly drawn) [Example 29, 3-(5-{[(2R,3S,7Z)-3-{[4-fluoro-3-(trifluoromethyl)phenyl]carbamoyl}-7-(2,2,2-trifluoroethylidene)bicyclo[2.2.1]heptan-2-yl]carbamoyl}-6-methoxypyridin-3-yl)benzoic acid]
95 | COc1cnc(-c2cc([C@H](OC(=O)NC3CCC3)C(F)(F)F)ccc2F)nc1C(=O)N[C@@H]1C2CCC(/C2=C/C(F)(F)F)[C@@H]1C(=O)Nc1ccc(F)c(C(F)(F)F)c1 (stereo partly drawn) [Example 37, (1S)-2,2,2-trifluoro-1-14-fluoro-3-(4-{[(2R,3S,7Z)-3-{[4-fluoro-3-(trifluoromethyl)phenyl]carbamoyl}-7-(2,2,2-trifluoroethylidene)bicyclo[2.2.1]heptan-2-yl]carbamoyl}-5-methoxypyrimidin-2-yl)phenyl]ethyl N-cyclobutylcarbamate]
5.3 | COc1ncc(-c2cc([C@H](OC(=O)N3CCS(=O)(=O)CC3)C(F)(F)F)ccc2F)cc1C(=O)N[C@@H]1C2CCC(/C2=C/C2CC2)[C@@H]1C(=O)Nc1ccc(F)c(C(F)(F)F)c1 (stereo partly drawn) [Example 187, (1S)-1-[3-(5-{[(2R,3S,7Z)-7-(cyclopropyl-methylidene)-3-{[4-fluoro-3-(trifluoromethyl)phenyl]carbamoyl}bicyclo[2.2.1]heptan-2-yl]carbamoyl}-6-methoxypyridin-3-yl)-4-fluorophenyl]-2,2,2-trifluoroethyl 1,1-dioxo-1λ^6-thiomorpholine-4-carboxylate]
